Reference: patent US20130197080A1, “USE OF TERIFLUNOMIDE FOR TREATING MULTIPLE SCLEROSIS” (SANOFI, priority 2010, published 2013)

Columns and labels:
[1] = test system: patients with RMS; assay: TEMSO Phase III trial: MRI outcomes; type: in vivo, humans; details: 108 weeks; for Brain parenchymal fraction, LS mean change from baseline / Brain parenchymal fraction, LS mean difference vs placebo / Brain parenchymal fraction, Relative reduction vs placebo: MMRM; for Number of Gd-enhancing T1 lesions per scan, Estimate / Number of unique active lesions per scan, Estimate: Poisson regression
Experimental: (§1) A treatment neurologist at each site was responsible for evaluating patient eligibility, supervision of study medication administration, recording and treating adverse events and assessing relapses, and monitoring safety assessments. An independent examining neurologist, blinded to treatment assignment, performed all EDSS scores and functional system assessments. EDSS scores were determined at screening, baseline, every 12 weeks following baseline visit, and at unscheduled relapse visits. MRI scans were performed at baseline and Weeks 24, 48, 72 and 108, and conducted according to the study protocol; image data were collected at clinical site MRI facilities.
(§2) The key secondary endpoint was to determine the effect of teriflunomide on delaying disability progression at Week 108 as assessed by changes in EDSS. Sustained disability progression was defined as a persisting increase from baseline of at least 1.0 point on the EDSS (or at least 0.5 for patients with a baseline EDSS score greater than 5.5) for at least 12 weeks. The key prespecified MRI endpoint was the effect of teriflunomide on burden of disease (total lesion volume). Other MRI endpoints included number of gadolinium (Gd)-enhancing T1 lesions, volume of T1 hypointense lesion components (‘black holes’), number of unique active lesions and brain atrophy. Patient-reported fatigue, assessed by the Fatigue Impact Scale (FIS), was an additional secondary endpoint.
Change from baseline in burden of disease and T1 hypointense lesion volume were analysed with a mixed-effect model with repeated measures (MMRM) using cubic root transformed data. Atrophy was analysed as change from baseline brain volume with the MMRM. The number of Gd-enhancing T1 lesions and number of unique active lesions per scan were analysed using a Poisson regression model with robust error variance. The percentage of patients free from lesions was analysed using a logistic regression model. MRI scans obtained within 14 days of systemic corticosteroid therapy were excluded from all analyses.
The MMRM model (mixed-effect model with repeated measures) included treatment, EDSS strata, region, visit, treatment-by-visit interaction, baseline value and baseline-by-visit interaction as covariates. The percentage of patients free from lesions was analysed by a logistic regression model that included treatment, number of lesions at baseline, EDSS strata and region as covariates. The Poisson regression model included treatment, number of lesions at baseline, EDSS strata and region as covariates, and log-transformed number of scans as an offset variable. The change from baseline in fatigue impact scale (FIS) total score was analyzed using MMRM.

[2] = test system: patients with RMS; assay: TEMSO Phase III trial: relapses, disability progression, fatigue; type: in vivo, humans; details: for Hazard ratio for teriflunomide vs placebo (12-week sustained disability progression) / Hazard ratio for teriflunomide vs placebo (relapse): Cox model; for Patients with a 12-week sustained disability progression / Patients without relapse during 108 weeks: Kaplan-Meier estimate; for Fatigue Impact scale score, LS mean change from baseline: MMRM
Source text: They were required to have a score of no more than 5.5 on the Kurtzke Expanded Disability Status Scale (EDSS), a minimum of two clinical relapses in the previous 2 years or one relapse during the preceding year, but no relapses in the 60 days before randomization. During the 4 weeks prior to randomization, patients were required to be clinically stable and have signed both the informed consent form and informed consent for HIV testing.
as §1
For suspected relapses occurring between study visits, patients were required to attend the study site within 7 days of symptom onset for objective assessment by the examining neurologist. Relapses could be treated with intravenous corticosteroids at the investigator's discretion.
The primary study objective was to determine the effect of teriflunomide in reducing annualized relapse rate (ARR; the number of confirmed relapses per patient-year). A relapse was defined as the appearance of a new clinical sign or symptom or clinical worsening of a previous sign or symptom that had been stable for at least 30 days and persisted for a minimum of 24 hours in the absence of fever. Confirmed relapses required an increase of 1 point in at least two functional systems, or an increase of 2 points in at least one functional system (excluding bowel/bladder and cerebral function), or an increase of 0.5 points in EDSS score (1.0 for EDSS=0) from the previous clinically stable assessment.
as §2
A sample size of 360 randomized patients per group was required to provide 95% statistical power to detect relative risk reductions (RRR) of 25% in ARR after 2 years, assuming a placebo ARR of 0.74 and standard deviation of 0.626. All analyses followed an intention-to-treat (ITT) principle and all inferential analyses were performed at the 2-sided 5% level of significance. ARR was analyzed using a Poisson regression model with robust error variance. The model included the total number of confirmed relapses as the response variable, and treatment, baseline EDSS strata, and region as covariates, and log transformed duration of treatment as offset variable.
Disability progression was analyzed using a log-rank test with time to first disability progression as the dependent variable, treatment as test variable, and region and baseline EDSS score as strata variables. Kaplan-Meier estimates and curves of the cumulative incidence were used to assess the rate of disability progression in patients across time points. […]

[3] = 7 mg once daily oral vs placebo
[4] = 7 mg once daily oral, ITT population
[5] = 7 mg once daily oral, MMRM using cubic root transformed volume data
[6] = 14 mg once daily oral vs placebo
[7] = 14 mg once daily oral, ITT population
[8] = 14 mg once daily oral, MMRM using cubic root transformed volume data
[9] = 7 mg once daily oral, 108 weeks, ITT population
[10] = 7 mg once daily oral, 108 weeks, ITT population (N = 365)
[11] = 14 mg once daily oral, 108 weeks, ITT population
[12] = 14 mg once daily oral, 108 weeks, ITT population (N = 358)

C/C(O)=C(\C#N)C(=O)Nc1ccc(C(F)(F)F)cc1 [teriflunomide, (Z)-2-cyano-3-hydroxy-but-2-enoic acid-(4′-trifluoromethylphenyl)-amide]
brain atrophy from baseline vs placebo ([1]; 7 mg and 14 mg groups): No significant differences | Number of Gd-enhancing T1 lesions per scan, Relative risk [1, 3]: 0.428 | Number of unique active lesions per scan, Relative risk [1, 3]: 0.523 | Number of Gd-enhancing T1 lesions per scan, Relative reduction vs placebo ([1]; 7 mg once daily oral): 57.2% | Number of unique active lesions per scan, Relative reduction vs placebo ([1]; 7 mg once daily oral): 47.7% | Burden of disease, Mean change from baseline [1, 4]: 1.308 mL | Proportion of patients free from Gd-enhancing T1 lesions, % [1, 4]: (51.4) % | T1 hypointense lesion volume, Mean change from baseline [1, 4]: 0.499 mL | Brain parenchymal fraction, LS mean change from baseline ([1]; 7 mg once daily oral): −0.003 | Brain parenchymal fraction, LS mean difference vs placebo ([1]; 7 mg once daily oral): 0.001 | Brain parenchymal fraction, Relative reduction vs placebo ([1]; 7 mg once daily oral): 25.0% | Burden of disease, LS mean change from baseline [1, 5]: 0.080 mL | Burden of disease, LS mean difference vs placebo [1, 5]: -0.053 mL | Burden of disease, Relative reduction vs placebo [1, 5]: 39.4% | T1 hypointense lesion volume, LS mean change from baseline [1, 5]: 0.079 mL | T1 hypointense lesion volume, LS mean difference vs placebo [1, 5]: -0.016 mL | T1 hypointense lesion volume, Relative reduction vs placebo [1, 5]: 16.7% | Number of Gd-enhancing T1 lesions per scan, Estimate [1, 4]: 0.570 | Number of unique active lesions per scan, Estimate [1, 4]: 1.288 | Number of Gd-enhancing T1 lesions per scan, Relative risk [1, 6]: 0.196 | Number of unique active lesions per scan, Relative risk [1, 6]: 0.306 | Burden of disease, Mean change from baseline [1, 7]: 0.723 mL | T1 hypointense lesion volume, Mean change from baseline [1, 7]: 0.331 mL | Brain parenchymal fraction, LS mean change from baseline ([1]; 14 mg once daily oral): −0.003 | Brain parenchymal fraction, LS mean difference vs placebo ([1]; 14 mg once daily oral): 0.001 | Brain parenchymal fraction, Relative reduction vs placebo ([1]; 14 mg once daily oral): 25.0% | Burden of disease, LS mean change from baseline [1, 8]: 0.043 mL | Burden of disease, LS mean difference vs placebo [1, 8]: -0.089 mL | T1 hypointense lesion volume, LS mean change from baseline [1, 8]: 0.066 mL | T1 hypointense lesion volume, LS mean difference vs placebo [1, 8]: -0.030 mL | Number of Gd-enhancing T1 lesions per scan, Estimate [1, 7]: 0.261 | Number of unique active lesions per scan, Estimate [1, 7]: 0.754 | Hazard ratio for teriflunomide vs placebo (12-week sustained disability progression) [2, 9]: 0.763 | Hazard ratio for teriflunomide vs placebo (relapse) [2, 9]: 0.756 | Adjusted Annualized Relapse Rate [2, 9]: 0.370 | Hazard ratio reduction vs placebo (disability progression) [2, 9]: 23.7% | No. of relapses 0 - patients (%) [2, 9]: (57.8) % | No. of relapses 1 - patients (%) [2, 9]: (25.2) % | No. of relapses 2 - patients (%) [2, 9]: (13.4) % | No. of relapses 3 - patients (%) [2, 9]: (2.7) % | No. of relapses ≧4 - patients (%) [2, 9]: (0.8) % | Relative Reduction in Annualized Relapse rate vs placebo [2, 9]: 31.2% | No. of relapses 0 - no. of patients [2, 10]: 211 | No. of relapses 1 - no. of patients [2, 10]: 92 | No. of relapses 2 - no. of patients [2, 10]: 49 | No. of relapses 3 - no. of patients [2, 10]: 10 | No. of relapses ≧4 - no. of patients [2, 10]: 3 | Patients with a 12-week sustained disability progression [2, 9]: 21.7% | Fatigue Impact scale score, LS mean change from baseline [2, 9]: 2.3 | Patients without relapse during 108 weeks [2, 4]: 53.7% | patients who discontinued treatment due to disease progression, compared with placebo ([2]; 14 mg group, p=0.02): lower number | Hazard ratio for teriflunomide vs placebo (12-week sustained disability progression) [2, 11]: 0.702 | Hazard ratio for teriflunomide vs placebo (relapse) [2, 11]: 0.719 | Adjusted Annualized Relapse Rate [2, 11]: 0.369 | No. of relapses 0 - patients (%) [2, 11]: (60.6) % | No. of relapses 1 - patients (%) [2, 11]: (24.0) % | No. of relapses 2 - patients (%) [2, 11]: (9.2) % | No. of relapses 3 - patients (%) [2, 11]: (4.5) % | No. of relapses ≧4 - patients (%) [2, 11]: (1.7) % | No. of relapses 0 - no. of patients [2, 12]: 217 | No. of relapses 1 - no. of patients [2, 12]: 86 | No. of relapses 2 - no. of patients [2, 12]: 33 | No. of relapses 3 - no. of patients [2, 12]: 16 | No. of relapses ≧4 - no. of patients [2, 12]: 6 | Patients with a 12-week sustained disability progression [2, 11]: 20.2% | Fatigue Impact scale score, LS mean change from baseline [2, 11]: 3.8 | Patients without relapse during 108 weeks [2, 7]: 56.5% | Patient-reported fatigue (FIS scores) ([2]; all treatment groups, during the study): remained stable
